# Tested on: chicken embryonic stem cells
# Experiment: Titration kill curve of chicken ES cells under puromycin or neomycin selection
# Format: cell-based
# Design: key to Morphology of cES cells: ES cells are present.; ES cells are differentiated.; gone: no morphologically recognizable cells are present
# Protocol: In a preferred embodiment, the concentration of puromycin required for selecting transfected cells is calculated as a titration kill curve. Titration kill curves for chicken embryonic stem cells are established by exposing cells in culture to puromycin concentrations varying from 0.0 to 1.0 μg/ml for 10 days (Table 7) and neomycin concentrations varying from 0.0 to 200 μg/ml (Table 8). The medium is changed every 2 days and fresh puromycin or neomycin is added. […] Puromycin concentrations of 0.3-1.0 μg/ml are used for selection of the transfected cultures. Neomycin concentrations over 40 μg/ml eliminated all cES cells within 7 days (Table 8).
smiles,measurement,setting,value
COc1ccc(C[C@H](N)C(=O)N[C@H]2[C@@H](O)[C@H](n3cnc4c(N(C)C)ncnc43)O[C@@H]2CO)cc1 [puromycin],presence of ES cells,"0.3 μg/ml puromycin, 3 changes of medium over a six day period",absent from all wells
same,Morphology of cES cells,"puromycin 0.1 μg/ml, day 1",ES
same,Morphology of cES cells,"puromycin 0.1 μg/ml, day 2",ES
same,Morphology of cES cells,"puromycin 0.1 μg/ml, day 3",ES
same,Morphology of cES cells,"puromycin 0.1 μg/ml, day 4",ES
same,Morphology of cES cells,"puromycin 0.1 μg/ml, day 5",ES
same,Morphology of cES cells,"puromycin 0.1 μg/ml, day 6",ES
same,Morphology of cES cells,"puromycin 0.1 μg/ml, day 7",ES
same,Morphology of cES cells,"puromycin 0.1 μg/ml, day 8",ES
same,Morphology of cES cells,"puromycin 0.1 μg/ml, day 9",ES
same,Morphology of cES cells,"puromycin 0.1 μg/ml, day 10",ES
same,Morphology of cES cells,"puromycin 0.2 μg/ml, day 1",ES
same,Morphology of cES cells,"puromycin 0.2 μg/ml, day 2",ES
same,Morphology of cES cells,"puromycin 0.2 μg/ml, day 3",ES
same,Morphology of cES cells,"puromycin 0.2 μg/ml, day 4",ES
same,Morphology of cES cells,"puromycin 0.2 μg/ml, day 5",ES
same,Morphology of cES cells,"puromycin 0.2 μg/ml, day 6",ES
same,Morphology of cES cells,"puromycin 0.2 μg/ml, day 7",ES
same,Morphology of cES cells,"puromycin 0.2 μg/ml, day 8",ES
same,Morphology of cES cells,"puromycin 0.2 μg/ml, day 9",ES
same,Morphology of cES cells,"puromycin 0.2 μg/ml, day 10",ES
same,Morphology of cES cells,"puromycin 0.25 μg/ml, day 1",ES
same,Morphology of cES cells,"puromycin 0.25 μg/ml, day 2",ES
same,Morphology of cES cells,"puromycin 0.25 μg/ml, day 3",ES
same,Morphology of cES cells,"puromycin 0.25 μg/ml, day 4",ES
same,Morphology of cES cells,"puromycin 0.25 μg/ml, day 5",ES
same,Morphology of cES cells,"puromycin 0.25 μg/ml, day 6",diff
same,Morphology of cES cells,"puromycin 0.25 μg/ml, day 7",diff
same,Morphology of cES cells,"puromycin 0.25 μg/ml, day 8",diff/
same,Morphology of cES cells,"puromycin 0.25 μg/ml, day 9",diff/
same,Morphology of cES cells,"puromycin 0.25 μg/ml, day 10",diff/
same,Morphology of cES cells,"puromycin 0.3 μg/ml, day 1",ES
same,Morphology of cES cells,"puromycin 0.3 μg/ml, day 2",ES
same,Morphology of cES cells,"puromycin 0.3 μg/ml, day 3",diff
same,Morphology of cES cells,"puromycin 0.3 μg/ml, day 4",diff/
same,Morphology of cES cells,"puromycin 0.3 μg/ml, day 5",diff/
same,Morphology of cES cells,"puromycin 0.3 μg/ml, day 6",gone
same,Morphology of cES cells,"puromycin 0.3 μg/ml, day 7",gone
same,Morphology of cES cells,"puromycin 0.3 μg/ml, day 8",gone
same,Morphology of cES cells,"puromycin 0.3 μg/ml, day 9",gone
same,Morphology of cES cells,"puromycin 0.3 μg/ml, day 10",gone
same,Morphology of cES cells,"puromycin 0.4 μg/ml, day 1",ES
same,Morphology of cES cells,"puromycin 0.4 μg/ml, day 2",diff
same,Morphology of cES cells,"puromycin 0.4 μg/ml, day 3",gone
same,Morphology of cES cells,"puromycin 0.4 μg/ml, day 4",gone
same,Morphology of cES cells,"puromycin 0.4 μg/ml, day 5",gone
same,Morphology of cES cells,"puromycin 0.4 μg/ml, day 6",gone
same,Morphology of cES cells,"puromycin 0.4 μg/ml, day 7",gone
same,Morphology of cES cells,"puromycin 0.4 μg/ml, day 8",gone
same,Morphology of cES cells,"puromycin 0.4 μg/ml, day 9",gone
same,Morphology of cES cells,"puromycin 0.4 μg/ml, day 10",gone
same,Morphology of cES cells,"puromycin 0.5 μg/ml, day 1",diff
same,Morphology of cES cells,"puromycin 0.5 μg/ml, day 2",gone
same,Morphology of cES cells,"puromycin 0.5 μg/ml, day 3",Gone
same,Morphology of cES cells,"puromycin 0.5 μg/ml, day 4",gone
same,Morphology of cES cells,"puromycin 0.5 μg/ml, day 5",gone
same,Morphology of cES cells,"puromycin 0.5 μg/ml, day 6",gone
same,Morphology of cES cells,"puromycin 0.5 μg/ml, day 7",gone
same,Morphology of cES cells,"puromycin 0.5 μg/ml, day 8",gone
same,Morphology of cES cells,"puromycin 0.5 μg/ml, day 9",gone
same,Morphology of cES cells,"puromycin 0.5 μg/ml, day 10",gone
same,Morphology of cES cells,"puromycin 0.6 μg/ml, day 1",diff
same,Morphology of cES cells,"puromycin 0.6 μg/ml, day 2",gone
same,Morphology of cES cells,"puromycin 0.6 μg/ml, day 3",gone
same,Morphology of cES cells,"puromycin 0.6 μg/ml, day 4",gone
same,Morphology of cES cells,"puromycin 0.6 μg/ml, day 5",gone
same,Morphology of cES cells,"puromycin 0.6 μg/ml, day 6",gone
same,Morphology of cES cells,"puromycin 0.6 μg/ml, day 7",gone
same,Morphology of cES cells,"puromycin 0.6 μg/ml, day 8",gone
same,Morphology of cES cells,"puromycin 0.6 μg/ml, day 9",gone
same,Morphology of cES cells,"puromycin 0.6 μg/ml, day 10",gone
same,Morphology of cES cells,"puromycin 0.7 μg/ml, day 1",diff
same,Morphology of cES cells,"puromycin 0.7 μg/ml, day 2",gone
same,Morphology of cES cells,"puromycin 0.7 μg/ml, day 3",gone
same,Morphology of cES cells,"puromycin 0.7 μg/ml, day 4",gone
same,Morphology of cES cells,"puromycin 0.7 μg/ml, day 5",gone
same,Morphology of cES cells,"puromycin 0.7 μg/ml, day 6",gone
same,Morphology of cES cells,"puromycin 0.7 μg/ml, day 7",gone
same,Morphology of cES cells,"puromycin 0.7 μg/ml, day 8",gone
same,Morphology of cES cells,"puromycin 0.7 μg/ml, day 9",gone
same,Morphology of cES cells,"puromycin 0.7 μg/ml, day 10",gone
same,Morphology of cES cells,"puromycin 0.8 μg/ml, day 1",gone
same,Morphology of cES cells,"puromycin 0.8 μg/ml, day 2",gone
same,Morphology of cES cells,"puromycin 0.8 μg/ml, day 3",gone
same,Morphology of cES cells,"puromycin 0.8 μg/ml, day 4",gone
same,Morphology of cES cells,"puromycin 0.8 μg/ml, day 5",gone
same,Morphology of cES cells,"puromycin 0.8 μg/ml, day 6",gone
same,Morphology of cES cells,"puromycin 0.8 μg/ml, day 7",gone
same,Morphology of cES cells,"puromycin 0.8 μg/ml, day 8",gone
same,Morphology of cES cells,"puromycin 0.8 μg/ml, day 9",gone
same,Morphology of cES cells,"puromycin 0.8 μg/ml, day 10",gone

# From patent publication US9144229B2, “Tissue specific expression of antibodies in chickens” (Synageva BioPharma Corp., priority 2002, dated 2015)
